The values below come from patent publication US12624057B2, “Bisphosphonate quinolone conjugates and uses thereof” (BIOVINC, LLC, priority 2016, dated 2026).

“Also recorded” adds a separate entry of the source.

The nature of data set [1]: In vivo tolerability during the rat peri-implant osteomyelitis studies. The settings on record: intraperitoneal. Further details: species or system Sprague-Dawley rats. The source says:
To determine appropriate dosing concentrations, we calculated approximate initial doses for the conjugate based on previous studies and pharmacokinetic data using similar target and release strategies and also rodents (Houghton, et al., Linking bisphosphonates to the free amino groups in fluoroquinolones: preparation of osteotropic prodrugs for the prevention of osteomyelitis. J Med Chem 2008; 51:6955-69; Morioka, et al., Design, synthesis, and biological evaluation of novel estradiol-bisphosphonate conjugates as bone-specific estrogens. Bioorg Med Chem 2010; 18:1143-8). We expected that increasing doses of 0.1, 1 and 10 mg/kg BP-ciprofloxacin molar equivalents will allow us to determine antimicrobial activity in 2 test animals per group based on sample size estimations and previous experience with the animal model (Freire, et al, Development of animal model for Aggregatibacter actinomycetemcomitans biofilm-mediated oral osteolytic infection: a preliminary study. J Periodontol 2011; 82:778-89). Animals were dosed via intraperitoneal injection under general anesthesia, and all compounds were constituted in sterile physiological injectable saline at appropriate pH. One week after pharmacotherapy, all animals were sacrificed and resection of peri-implant tissues was performed, and tissues were immediately homogenized and processed for quantitative assessment of microbial load. Animals were monitored throughout the study period for local or systemic adverse effects of pharmacotherapy.
To determine appropriate dosing concentrations, approximate initial doses were calculated for the conjugate based on previous studies and pharmacokinetic data using similar target and release strategies also in rodents.^13, 26 Increasing doses of 0.1, 1 and 10 mg/kg molar equivalents of 6 can allow for determination of antimicrobial activity in 2 test animals per group based on sample size estimations and previous experience with the animal model.^32 Animals were dosed via intraperitoneal injection under general anesthesia, and all compounds were constituted in sterile physiological injectable saline at appropriate pH.

Data set [2] can be described thus: Hydroxyapatite (HA) binding assay, spectroscopic analysis of supernatant. The format is physicochemical. The settings on record: supernatant at 0 hr versus 24 hrs, TSB medium. Here is the method:
Solutions containing BP-ciprofloxacin and HA spherules were introduced to wells of 24-well plate. […] Plates were shaken automatically in the spectrometer prior to assessment. Next, plates were left for 24 h/37° C./shaking. After 24 hours, absorbance was measured once again. To assess the relative concentration of the conjugate at 0 hr and 24 hrs, values of absorbance taken in the beginning and at the end of experiment were compared.
Spectroscopic analysis of 6 and 11 in Tryptic Soy Broth (TSB) microbiological media with the addition of HA spherules: Various conjugate concentrations were introduced to HA powder (spherules) suspended in TSB microbiological medium. Solutions containing BP-ciprofloxacin an HA spherules were introduced to wells of a 24-well plate. […] Plates were shaken automatically in the spectrometer prior to assessment. Next, plates were left for 24 hrs/37° C./shaking. After 24 hrs, absorbance was measured once again. To assess the relative concentration of the conjugate at 0 hr and 24 hrs, values of absorbance taken in the beginning and at the end of experiment were compared. The excitation slit, emission slit, integration time, and increment were optimized based on the concentration of samples.

As for `O=C(O)c1cn(C2CC2)c2cc(N3CCN(C(=O)Oc4ccc(CC(P(=O)(O)O)P(=O)(O)O)cc4)CC3)c(F)cc2c1=O` [Compound 6, 1-cyclopropyl-7-(4-((4-(2,2-diphosphonoethyl)phenoxy)carbonyl)piperazin-1-yl)-6-fluoro-4-oxo-1,4-dihydroquinoline-3-carboxylic acid], the “tolerability / adverse events” value is “no potential systemic toxicity or adverse effects” in data set [1] (first animal experiment, listed as BCC); “safety and efficacy was demonstrated in vivo” in data set [1] (first animal experiment, listed as BP-ciprofloxacin); “no signs of gross tolerability issues during therapy” in data set [1] (second animal experiment); “tolerated treatment and pharmacotherapy well with no adverse events” in data set [1] (second animal experiment, listed as BCC). Besides, the “adsorption to hydroxyapatite (HA)” value in data set [2] was “significant adsorption and retention of the conjugate by HA; also recorded: effective adsorption and retention to HA spherules”; in data set [2] (listed as BCC) it was “taken up by the HA beads; also recorded: confirms adsorption of conjugate to HA”; in data set [2] (listed as BP-ciprofloxacin), “significant adsorption and retention of the conjugate by HA”.
